Laboratory results as given in PMC3565575 (Bioorganic & medicinal chemistry, 2010).

What was measured:
[1] = system: SKOV-3 (human ovarian adenocarcinoma); assay: Multi-plex cytotoxicity assay, SKOV-3; type: cell-based; conditions: SKOV-3 cells
sigma-1 receptor = sigma-1 receptor (Cavia porcellus, UniProt Q60492); assay: Sigma-1 receptor competitive binding against; conditions: Sigma 1 K1 values (nM) (± SEM, n=3), R^2 value, guinea pig liver membranes, 10 nM (+)-[3H]-pentazocine, brackets: SEM
sigma-1 receptor, sequence (Q60492 whole entry): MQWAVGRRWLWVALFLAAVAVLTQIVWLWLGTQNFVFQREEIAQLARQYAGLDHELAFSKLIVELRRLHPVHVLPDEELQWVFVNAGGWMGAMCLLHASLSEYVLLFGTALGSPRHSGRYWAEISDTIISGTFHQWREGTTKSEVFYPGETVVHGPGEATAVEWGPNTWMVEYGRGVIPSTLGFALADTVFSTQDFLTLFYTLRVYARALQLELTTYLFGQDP

Compound | Growth inhibition (in words) [1] | Ki (sigma-1 receptor)
CCCCN(CCCC)CCCc1ccc(F)cc1 [compound 9, N.N-Dibutyl-3-(4-fluorophenyl)propylamine] | the only cell line whose growth is inhibited by compound 9 | –
CCCN(Cc1cccc([N+](=O)[O-])c1)C(=O)CCc1ccc(F)cc1 [compound 6, 3-(4-Fluorophenyl)-N-(3-nitrobenzyl)-N-propylpropanamide] | – | > 100000 nM
